Among the data in PubChem BioAssay (NCI) are TGI and GI50 values, retold here.

What all share (test): NCI tumour cell line growth inhibition, 48 h
Assay [1] relates to 786-0 renal.
Assay [2] relates to HL-60(TB) leukemia.
For assay [3], the system named is HOP-62 NSCLC.
In assay [4] the test system is KM12 colon.
Assay [5] relates to NCI-H226 lung.
Assay [6] relates to NCI-H23 lung.
Assay [7] relates to SN12C renal.
Assay [8] deals with TK-10 renal.
Assay [9] has as its system MCF7 breast.
For assay [10], the system named is T-47D breast.

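Where inhibition never reached the appropriate level, the endpoint shown equals the highest concentration tested. Otherwise, values were interpolated linearly from a five-concentration, 48-hour dose response in 96-well plates. GI50 = concentration required for 50% inhibition of growth. At the TGI there is no net growth.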

On to `CC(SC(=O)Nc1ccc(N=Nc2ccccc2)cc1)C(=O)O` (stereo not drawn), for which the TGI in assay [1], in [2], in assay [3], in [4], in assay [5] and in [6] was > 100 µM each time. Besides, the TGI in assay [7] and in assay [8] was > 100 µM in each case.

Turning to `Cc1ccc(S(=O)(=O)NC(CN)C(=O)O)cc1` (stereo not drawn), the TGI in [1], in [3], in assay [4], in assay [9], in assay [5] and in [6] was > 100 µM throughout. For the same compound, the TGI in assay [10] and in assay [8] was > 100 µM in each case.

As to `CC(=O)C1=C(O)C2C3c4c[nH]c5cccc(c45)CC3C(C)(C)N2C1=O` (stereo not drawn), the TGI in [1] was > 100 µM; in assay [2] it was 9.85 µM; in assay [3] it was 22.4 µM; in assay [4] it was > 100 µM; in assay [5] it was 71.4 µM; in [6], 64.3 µM. The TGI in assay [8] was > 100 µM.

Take `C[C@]12CCC3[C@@H](CC[C@@H]4c5nonc5CC[C@]34C)C1CC[C@@H]2O` (stereo partly drawn): the TGI is 75.5 µM in [1]; 43.9 µM in assay [2]; > 100 µM in assay [3]; > 100 µM in [4]; > 100 µM in assay [5]; > 100 µM in [6]. Further, the TGI in [7] is 53.2 µM; in [8] it was > 100 µM.

Regarding `Cc1c(/C=N/N(C)C)oc2c1cc(O)c1ncccc12`, the TGI is > 100 µM in assay [1]; 6.46 µM in assay [2]; > 100 µM in [3]; > 100 µM in assay [4]; 48.9 µM in [5]; > 100 µM in [6]. For the same compound, the TGI in assay [7] was 96.4 µM; in assay [8] it was > 100 µM.

`CC(=O)NC(CC(C)C)C(=O)NC(Cc1ccccc1)C(=S)N1CCCC1` (stereo not drawn): the TGI in assay [1], in assay [2], in [3], in assay [4], in assay [5] and in assay [6] was > 100 µM each time. In addition, the TGI in assay [7] and in assay [8] was > 100 µM each time.

In the case of `CC(=O)OC1COC(n2c(=S)n(-c3ccccc3)c(=O)c3ccccc32)C(OC(C)=O)C1OC(C)=O` (stereo not drawn), the TGI in assay [1], in [2], in [3], in assay [4], in assay [5] and in [6] was > 100 µM throughout. Also, in assay [7], the TGI is > 100 µM.

On to `Cc1ccc(S(=O)(=O)N/N=C(/c2nc3ccc([N+](=O)[O-])cc3[nH]c2=O)C(O)c2ccc(C(O)/C(=N\NS(=O)(=O)c3ccc(C)cc3)c3nc4ccc([N+](=O)[O-])cc4[nH]c3=O)cc2)cc1` (stereo not drawn), for which the TGI in assay [1] was > 100 µM; in assay [2], 98.3 µM; in assay [3] it was > 100 µM; in assay [4] it was > 100 µM; in assay [6] it was > 100 µM; in assay [8], > 100 µM.

In the case of `CC(C)(C)C(C#N)(C#N)c1ccc(C(C#N)(C#N)C(C)(C)C)nn1`, the TGI in [1], in [2], in [3], in assay [4], in assay [6] and in assay [7] was > 100 µM throughout. Besides, the TGI in [8] was > 100 µM.

For the compound `CC1(C)C(=O)C(C)(C)C1=S`, the TGI in assay [1], in assay [2], in [3], in assay [4], in assay [5] and in assay [6] was > 100 µM each time. Also, the TGI in assay [7] and in assay [8] was > 100 µM in each case.

Consider `O=C(CN1C(=O)S/C(=C\C(Cl)=C\c2ccccc2)C1=O)NC1C=CS(=O)(=O)C1` (stereo not drawn), for which the GI50 was 1.8 µM in assay [1]; 2.97 µM in assay [3]; 1.78 µM in assay [4]; 0.467 µM in assay [9]; 2.09 µM in assay [6]; 1.27 µM in assay [7]. Also, the GI50 is 0.917 µM in [10] and 2.08 µM in [8]. Besides, the TGI is 4.37 µM in assay [1]; 11.1 µM in [3]; 4.11 µM in assay [4]; > 100 µM in [9]; 7.17 µM in assay [6]; 5.51 µM in assay [7]. In addition, the TGI was determined as 8.19 µM in assay [10] and 6.61 µM in assay [8].

Turning to `O=C(Nc1nc2c(ncn2C2OC(CO)C(O)C2O)c(=O)[nH]1)c1ccccc1` (stereo not drawn), the TGI in assay [1], in assay [2], in assay [3], in assay [4], in [5] and in [6] was > 100 µM in each case. Further, the TGI in assay [7] and in assay [8] was > 100 µM each time.

Consider `O=P(O)(O)C1(P(=O)(O)O)CC1`, for which the TGI in assay [1], in [3], in [4], in assay [5], in [6] and in assay [7] was > 100 µM each time. For the same compound, the TGI in assay [8] is > 100 µM.

Turning to `CCCCCCC[CH2][Sn]1([CH2]CCCCCCC)[O]C(=O)c2cccnc2[O]1`, the GI50 in assay [1], in assay [2], in [4], in assay [5], in assay [6] and in [7] was > 100 µM each time. In assay [8], the GI50 was > 100 µM. In addition, the TGI in assay [1], in assay [2], in assay [4], in [5], in assay [6] and in assay [7] was > 100 µM in each case. For the same compound, the TGI in [8] is > 100 µM.

On to `Nc1ncnc2c1ncn2C1CC(OCc2ccccc2[N+](=O)[O-])C(CO)O1` (stereo not drawn), for which the TGI was > 50 µM in assay [1]; 31.6 µM in assay [2]; > 50 µM in assay [3]; > 50 µM in assay [4]; 36.3 µM in [5]; > 50 µM in assay [6]. In addition, the TGI in [7] and in assay [8] was > 50 µM in each case.
